From patent publication US20160166604A1, “Thiol-Sensitive Positive Inotropes” (priority 2005, published 2016)
Entries after “also recorded” stand apart in the source; their conditions may differ.

Key:
[1] = End-diastolic pressure-volume relationship (EDPVR) in chronically instrumented dogs with pacing-induced cardiac failure; assay type: in vivo; conditions: CHF dog preparations
Experimental: Adult male mongrel dogs (22-25 kg) were chronically instrumented for pressure-dimension analysis as described. See, Paolocci et al., “Positive Inotropic and Lusitropic Effects of HNO/NO− in Failing Hearts: Independence from Beta-Adrenergic Signaling,” Proc. Natl. Acad. Sci. USA., 100, 5537-5542 (2003); and Senzaki et al., Circulation, 101, 1040-1048 (2000). Animals were anesthetized with 1% to 2% halothane after induction with sodium thiopental (10-20 mg/kg, i.v.). The surgical/experimental animal protocol was approved by the Johns Hopkins University Animal Care and Use Committee. […] Cardiac failure was induced by rapid ventricular pacing for 3 weeks as described. See, Paolocci et al., supra, and Senzaki et al., supra.
Hemodynamic data were digitized at 250 Hz. […] These relations strongly correlate with results from pressure-volume data in normal and failing hearts, as previously validated. Cardiovascular function was assessed by stroke dimension, fractional shortening (stroke dimension/end-diastolic dimension [EDD]), estimated cardiac output (stroke dimension×HR), peak rate of pressure rise (dP/dtmax), end-systolic elastance (Ees, slope of end-systolic pressure-dimension relation [ESPDR]), the slope of dP/dtmax-EDD relation (DEDD) (see, Little, Circ Res., 56:808-815 (1985)), pre-recruitable stroke work (PRSW), (based on dimension-data), estimated arterial elastance (Ea, end systolic pressure/stroke dimension) and estimated total resistance (RT, […]). Ees, DEDD and PRSW provide load-insensitive contractility measures.
The end-diastolic pressure-volume relationship (EDPVR) was determined applying non-linear regression analysis to the end-diastolic pressure and volume points (Ped and Ved, respectively), according to Kass, Cardiol Clin., 18, 571-86 (2000) (Review).
In order to evaluate the impact of each pharmacological intervention on the EDPVR, changes in end-diastolic pressure from baseline (ΔPed) at volumes providing baseline end-diastolic pressure of […] mmHg EDP (V10, V15, V20, respectively) were determined (FIG. 5).

[2] = system: cardiac myocytes from WT and Gαq overexpressing FVB/N mice; assay: Sarcomere shortening in cardiac myocytes from WT and Gαq overexpressing mice; assay type: cell-based, mouse; conditions: for enhancement of sarcomere shortening: WT cells
Experimental: Cardiac myocytes were isolated from WT and Gαq overexpressing 2-6 month old FVB/N mice, suspended in Tyrode's solution (1 mM calcium) and field stimulated at 0.5 Hz at 23° C. Sarcomere shortening (SS) was assessed by real-time image analysis; data are presented at steady-state (10 minutes drug infusion).

[3] = system: isolated mouse ventricular myocytes; assay: Sarcomere shortening in field-stimulated isolated mouse ventricular myocytes; assay type: cell-based
Experimental: Wild type 2-4 month old mice were anesthetized with intraperitoneal pentobarbital sodium (100 mg/kg/ip). Hearts were perfused as previously described. Mongillo, M. et al., Circ. Res., 98, 226-234 (2006). To assess for sarcomere shortening, cells were imaged using field stimulation (Warner instruments) in an inverted fluorescence microscope (Diaphot 200; Nikon, Inc). Sarcomere length was measured by real-time Fourier transform (IonOptix MyoCam, CCCCD100M) and cell twitch amplitude is expressed as a percentage of resting cell length. Twitch kinetics was quantified by measuring the time to peak shortening and the time from peak shortening to 50% relaxation. For whole calcium transient measurements, myocytes were loaded with the Ca^2+ indicator fluo-4/AM (Molecular Probes, 20 μM for 30 min) and Ca^2+ transients were measured under field-stimulation at 0.5 Hz in perfusion solution by confocal laser scanning microscope (LSM510, Carl Zeiss). Digital image analysis used customer-designed programs coded in Interactive Data Language (IDL).
Nitroxyl (HNO) confers positive inotropy in vivo. Here, it was determined whether HNO action stems from a direct influence on sarcoplasmic reticulum (SR) Ca^2+ cycling, involving enhanced Ca^2+ release from ryanodine receptors (RyR2). Myocytes were isolated from ST mice, suspended in Tyrode's solution (1 mM Ca^2+) and field stimulated (0.5 Hz, 25° C.). Sarcomere shortening (SS) was assessed by real-time image analysis, Ca^2+ transients from Indo-1 fluorescence. RyR2 activity was determined by optical imaging of Ca^2+ release from single Ca^2+ release units.

[4] = molecular target: T1, SR Ca2+ pump (SERCA2a) (Mus musculus, UniProt O55143); assay: ATP-dependent Ca2+ uptake by murine cardiac SR vesicles (stopped-flow, arsenazo III); assay type: biochemical
T1 construct: Crude cardiac microsomal vesicles containing fragmented sarcoplasmic reticulum (SR) were prepared; from tissue; host or cells: pooled hearts of C57 male mice (crude SR microsomal vesicles)
Experimental: Crude cardiac microsomal vesicles containing fragmented sarcoplasmic reticulum (SR) were prepared as previously described for rat heart. Froehlich, J. P. et al., J. Mol. Cell. Cardiol., 10, 427-438 (1978). Pooled hearts from C57 male mice sacrificed by cervical dislocation were placed in 0.9% saline on ice, trimmed of atrial and connective tissue, and weighed. The finely minced heart muscle was homogenized in 10 mM NaHCO3 using a Polytron blender and the SR vesicles were separated from the myofilaments, mitochondria and nuclear membranes by differential centrifugation at 8,500 and 45,000×g. SR vesicles suspended in 0.25 M sucrose+10 mM MOPS, pH 7.0 were frozen and stored in liquid nitrogen prior to use. Twenty minutes prior to measuring Ca^2+ uptake, cardiac SR vesicles (1 mg/ml in storage buffer) were incubated with 250 μM AS delivered from a freshly-prepared 10 mM stock solution of AS (Na2N2O3) dissolved in 10 mM NaOH. […] Stopped-flow mixing was used to measure the initial time course of Ca^2+ accumulation by murine cardiac SR vesicles using the Ca^2+ indicator dye, arsenazo III. Membrane vesicles (0.4 mg/ml) suspended in a medium containing 100 mM KCl, 1 mM MgCl2, 50 μM arsenazo III, 5 mM sodium azide, and 20 mM MOPS, pH 7.4, were mixed with an equal volume of an identical medium containing 1 mM Na2ATP at 24° C. in a manually-operated stopped-flow apparatus (Applied Photophysics, Ltd.). The change in [Ca^2+] in the mixing cuvette was monitored using a single-beam UV-VIS spectrophotometer (AVIV, Model 14DS) with a monochromator setting of 650 nm. The total [Ca^2+] in the uptake medium was 0.5 μM, yielding a free [Ca^2+] in equilibrium with the Ca-arsenazo III complex of 0.2 μM (KA=3.3×10^4 M^−1). […] The time-dependent decrease in absorbance at 650 nm, reflecting Ca^2+ uptake by the SR vesicles, was monitored for 30-60 s at 0.1 s intervals. […] The signal change due to vesicle light scattering was evaluated from separate measurements conducted under identical conditions at the isosbestic wavelength of 693 nm. For evaluation of the time course of Ca^2+ uptake, a representative trace at 693 nm was subtracted from each of the individual traces at 650 nm acquired under identical conditions. The kinetic and thermodynamic parameters for Ca^2+ uptake were evaluated by fitting stopped-flow signals to one- and two-exponential decay functions plus a residual term using non-linear regression (Prism, Version 3.03). Residual plots of the difference between the fitted curve and data points were used to evaluate systematic errors in the fits and to calculate the sum-of-squares error used in selecting the best fit.
To test whether HNO directly enhances SR Ca^2+ uptake, its effects on SR membrane vesicles isolated from pooled C57/Bl6 mouse hearts were studied. Crude SR microsomal vesicles were incubated with 250 μM AS prior to measuring ATP-dependent Ca uptake by stopped-flow mixing at 24° C. Arsenazo III, a mid-range Ca indicator, was used to monitor Ca removal from the eravesicular compartment and buffer the free [Ca^2+] at a level producing half-saturation of the Ca^2+ pump (˜0.2 μM).

[5] = molecular target: T2, RyR2 (Mus musculus, UniProt E9Q401); assay: Spontaneous Ca2+ sparks and spark frequency in intact murine myocytes; assay type: cell-based; conditions: for effect on Ca2+ sparks in control and AS (0.5 mM) cells: thapsigargin 10 μM, 30 min, ryanodine 10 μM
T2 construct: endogenous in cells; host or cells: freshly isolated adult mouse cardiac myocytes
T2 sequence (E9Q401 whole entry): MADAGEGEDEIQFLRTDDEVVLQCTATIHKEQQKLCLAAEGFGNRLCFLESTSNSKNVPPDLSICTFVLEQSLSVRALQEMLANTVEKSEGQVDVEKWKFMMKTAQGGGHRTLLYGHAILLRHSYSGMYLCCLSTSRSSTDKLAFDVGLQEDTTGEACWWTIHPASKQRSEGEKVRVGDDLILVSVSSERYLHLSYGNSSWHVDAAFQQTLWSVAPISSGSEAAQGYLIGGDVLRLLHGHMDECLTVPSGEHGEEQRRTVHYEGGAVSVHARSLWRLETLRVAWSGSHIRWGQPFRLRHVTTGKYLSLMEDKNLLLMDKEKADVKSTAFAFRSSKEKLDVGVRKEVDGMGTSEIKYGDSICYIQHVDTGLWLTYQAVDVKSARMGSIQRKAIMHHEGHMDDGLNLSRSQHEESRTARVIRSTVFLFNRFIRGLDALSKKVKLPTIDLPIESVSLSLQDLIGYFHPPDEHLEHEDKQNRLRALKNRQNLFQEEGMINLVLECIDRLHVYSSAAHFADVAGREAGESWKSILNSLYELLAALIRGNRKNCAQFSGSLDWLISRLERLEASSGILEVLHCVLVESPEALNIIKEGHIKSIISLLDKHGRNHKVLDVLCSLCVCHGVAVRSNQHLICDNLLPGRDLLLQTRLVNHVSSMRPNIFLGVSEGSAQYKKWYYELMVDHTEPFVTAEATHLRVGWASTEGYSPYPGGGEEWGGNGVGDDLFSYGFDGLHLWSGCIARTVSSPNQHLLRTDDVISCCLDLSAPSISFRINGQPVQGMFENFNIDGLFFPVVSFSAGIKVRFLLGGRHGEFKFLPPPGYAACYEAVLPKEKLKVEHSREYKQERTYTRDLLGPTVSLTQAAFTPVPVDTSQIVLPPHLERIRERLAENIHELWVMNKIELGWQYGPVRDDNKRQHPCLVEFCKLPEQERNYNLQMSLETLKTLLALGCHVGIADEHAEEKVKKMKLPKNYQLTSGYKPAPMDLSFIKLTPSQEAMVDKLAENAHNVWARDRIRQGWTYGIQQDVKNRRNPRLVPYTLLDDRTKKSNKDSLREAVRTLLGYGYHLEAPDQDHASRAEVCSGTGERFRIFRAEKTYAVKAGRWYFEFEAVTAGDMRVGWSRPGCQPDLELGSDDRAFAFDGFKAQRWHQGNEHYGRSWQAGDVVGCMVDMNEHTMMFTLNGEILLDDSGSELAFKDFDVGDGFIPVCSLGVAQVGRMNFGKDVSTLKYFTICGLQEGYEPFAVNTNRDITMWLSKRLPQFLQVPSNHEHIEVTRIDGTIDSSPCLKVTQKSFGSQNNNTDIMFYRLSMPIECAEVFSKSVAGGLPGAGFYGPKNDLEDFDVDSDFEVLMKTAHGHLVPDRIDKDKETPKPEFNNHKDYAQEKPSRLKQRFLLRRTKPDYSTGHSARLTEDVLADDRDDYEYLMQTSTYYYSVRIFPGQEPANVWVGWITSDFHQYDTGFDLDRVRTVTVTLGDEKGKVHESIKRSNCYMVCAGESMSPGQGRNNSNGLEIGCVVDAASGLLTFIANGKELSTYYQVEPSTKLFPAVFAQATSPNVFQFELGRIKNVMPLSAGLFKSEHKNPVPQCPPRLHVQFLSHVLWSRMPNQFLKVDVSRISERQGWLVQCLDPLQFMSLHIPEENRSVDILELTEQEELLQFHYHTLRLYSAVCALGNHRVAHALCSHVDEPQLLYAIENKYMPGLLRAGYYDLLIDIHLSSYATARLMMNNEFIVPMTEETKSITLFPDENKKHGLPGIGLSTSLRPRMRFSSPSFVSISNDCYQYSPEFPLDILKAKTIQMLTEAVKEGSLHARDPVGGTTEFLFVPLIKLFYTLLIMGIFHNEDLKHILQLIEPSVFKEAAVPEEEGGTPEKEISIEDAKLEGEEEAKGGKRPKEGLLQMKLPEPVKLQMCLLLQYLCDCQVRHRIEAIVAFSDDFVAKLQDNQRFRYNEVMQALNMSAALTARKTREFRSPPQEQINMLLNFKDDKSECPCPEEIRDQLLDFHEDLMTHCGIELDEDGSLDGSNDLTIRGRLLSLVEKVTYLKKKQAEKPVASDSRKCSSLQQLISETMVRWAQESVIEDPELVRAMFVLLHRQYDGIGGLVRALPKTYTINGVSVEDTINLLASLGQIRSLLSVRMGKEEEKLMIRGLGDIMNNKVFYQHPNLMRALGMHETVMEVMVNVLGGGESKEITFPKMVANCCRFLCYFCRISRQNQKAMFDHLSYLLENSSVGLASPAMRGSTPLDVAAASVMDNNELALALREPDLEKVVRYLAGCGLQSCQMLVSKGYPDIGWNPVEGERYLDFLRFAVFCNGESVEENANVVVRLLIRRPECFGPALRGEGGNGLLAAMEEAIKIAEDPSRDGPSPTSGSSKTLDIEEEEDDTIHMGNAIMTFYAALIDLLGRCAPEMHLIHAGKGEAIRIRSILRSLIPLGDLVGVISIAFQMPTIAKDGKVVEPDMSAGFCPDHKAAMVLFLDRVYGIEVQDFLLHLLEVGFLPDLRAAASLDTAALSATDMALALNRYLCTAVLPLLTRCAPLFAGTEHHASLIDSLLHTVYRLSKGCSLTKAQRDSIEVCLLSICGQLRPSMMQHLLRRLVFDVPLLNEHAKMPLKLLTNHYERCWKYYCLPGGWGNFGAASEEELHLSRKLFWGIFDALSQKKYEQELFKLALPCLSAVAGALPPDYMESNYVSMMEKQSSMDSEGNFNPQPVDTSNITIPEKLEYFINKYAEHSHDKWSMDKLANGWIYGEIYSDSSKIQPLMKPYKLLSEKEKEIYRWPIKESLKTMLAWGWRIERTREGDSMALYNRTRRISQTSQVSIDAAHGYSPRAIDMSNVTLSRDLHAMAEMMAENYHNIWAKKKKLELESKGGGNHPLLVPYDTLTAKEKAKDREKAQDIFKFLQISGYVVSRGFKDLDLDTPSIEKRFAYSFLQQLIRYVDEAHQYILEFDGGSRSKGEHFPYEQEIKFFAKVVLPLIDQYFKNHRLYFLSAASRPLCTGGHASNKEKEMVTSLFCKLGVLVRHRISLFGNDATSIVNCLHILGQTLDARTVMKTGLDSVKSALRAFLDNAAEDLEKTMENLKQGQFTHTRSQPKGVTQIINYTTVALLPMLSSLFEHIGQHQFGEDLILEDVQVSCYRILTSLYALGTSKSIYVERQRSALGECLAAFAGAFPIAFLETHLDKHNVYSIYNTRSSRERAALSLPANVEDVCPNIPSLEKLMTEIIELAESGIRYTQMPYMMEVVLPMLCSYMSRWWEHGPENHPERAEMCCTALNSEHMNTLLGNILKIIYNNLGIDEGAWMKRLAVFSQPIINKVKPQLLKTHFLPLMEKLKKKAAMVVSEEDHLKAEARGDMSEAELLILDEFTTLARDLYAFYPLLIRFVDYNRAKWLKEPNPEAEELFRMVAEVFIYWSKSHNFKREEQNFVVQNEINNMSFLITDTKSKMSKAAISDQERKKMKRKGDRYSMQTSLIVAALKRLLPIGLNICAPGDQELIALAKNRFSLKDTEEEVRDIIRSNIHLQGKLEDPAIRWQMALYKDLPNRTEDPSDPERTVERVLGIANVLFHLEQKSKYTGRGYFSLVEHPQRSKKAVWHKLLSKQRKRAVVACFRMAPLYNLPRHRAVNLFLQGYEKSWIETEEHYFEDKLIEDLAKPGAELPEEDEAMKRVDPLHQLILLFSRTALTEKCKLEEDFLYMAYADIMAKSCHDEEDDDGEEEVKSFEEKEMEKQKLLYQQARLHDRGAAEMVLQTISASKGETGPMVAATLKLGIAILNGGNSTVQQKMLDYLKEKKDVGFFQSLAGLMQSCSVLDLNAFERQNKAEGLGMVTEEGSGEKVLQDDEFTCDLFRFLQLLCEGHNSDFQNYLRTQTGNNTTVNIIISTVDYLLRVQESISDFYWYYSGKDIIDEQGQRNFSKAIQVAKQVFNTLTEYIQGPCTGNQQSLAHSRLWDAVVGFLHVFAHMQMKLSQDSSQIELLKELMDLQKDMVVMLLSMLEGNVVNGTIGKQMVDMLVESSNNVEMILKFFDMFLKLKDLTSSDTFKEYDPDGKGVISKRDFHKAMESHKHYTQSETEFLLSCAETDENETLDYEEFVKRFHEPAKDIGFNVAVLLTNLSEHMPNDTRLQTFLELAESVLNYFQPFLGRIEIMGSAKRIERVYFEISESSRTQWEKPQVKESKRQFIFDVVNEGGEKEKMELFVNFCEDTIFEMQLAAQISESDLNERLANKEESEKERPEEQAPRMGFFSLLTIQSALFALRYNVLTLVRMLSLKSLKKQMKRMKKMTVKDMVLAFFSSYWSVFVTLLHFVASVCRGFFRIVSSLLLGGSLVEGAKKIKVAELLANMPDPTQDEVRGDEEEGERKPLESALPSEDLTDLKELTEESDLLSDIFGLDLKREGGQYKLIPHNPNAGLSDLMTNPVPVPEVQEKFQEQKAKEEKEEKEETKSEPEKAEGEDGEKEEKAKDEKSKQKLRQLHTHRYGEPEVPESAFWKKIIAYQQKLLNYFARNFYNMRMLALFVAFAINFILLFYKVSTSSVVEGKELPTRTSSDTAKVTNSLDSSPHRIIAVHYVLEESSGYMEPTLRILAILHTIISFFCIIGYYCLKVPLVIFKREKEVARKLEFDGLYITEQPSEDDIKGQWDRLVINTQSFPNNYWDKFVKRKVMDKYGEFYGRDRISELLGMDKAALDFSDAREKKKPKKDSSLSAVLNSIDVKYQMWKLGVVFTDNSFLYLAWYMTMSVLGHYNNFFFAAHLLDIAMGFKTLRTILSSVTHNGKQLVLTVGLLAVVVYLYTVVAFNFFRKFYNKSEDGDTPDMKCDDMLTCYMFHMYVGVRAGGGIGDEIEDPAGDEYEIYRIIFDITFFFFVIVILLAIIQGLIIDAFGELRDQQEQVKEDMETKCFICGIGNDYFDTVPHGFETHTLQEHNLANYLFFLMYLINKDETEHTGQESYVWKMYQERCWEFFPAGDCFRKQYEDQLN
Experimental: Freshly isolated mouse cardiac myocytes were loaded with the Ca^2+ indicator fluo-4/AM (Molecular Probes, 20 μM for 30 min). Confocal images were acquired using a confocal laser-scanning microscope (LSM510, Carl Zeiss) with a Zeiss Plan-Neofluor 40× oil immersion objective (NA≈1.3). Fluo-4/AM was excited by an argon laser (488 nm), and fluorescence was measured at >505 nm. Images were taken in the line-scan mode, with the scan line parallel to the long axis of the myocytes. Each image consisted of 512 line scans obtained at 1.92 ms intervals, each comprising 512 pixels at 0.10 μm separation. Digital image analysis used customer-designed programs coded in Interactive Data language (IDL) and a modified spark detection algorithm. Cheng, H. et al., Biophys. J., 76, 606-617 (1999).
Nitroxyl (HNO) confers positive inotropy in vivo. Here, it was determined whether HNO action stems from a direct influence on sarcoplasmic reticulum (SR) Ca^2+ cycling, involving enhanced Ca^2+ release from ryanodine receptors (RyR2). Myocytes were isolated from ST mice, suspended in Tyrode's solution (1 mM Ca^2+) and field stimulated (0.5 Hz, 25° C.). Sarcomere shortening (SS) was assessed by real-time image analysis, Ca^2+ transients from Indo-1 fluorescence. RyR2 activity was determined by optical imaging of Ca^2+ release from single Ca^2+ release units. The HNO donor Angeli's Salt (AS) induced dose-dependent inotropy (SS: 73±31% at 0.5 mM; 131±31% at 1 mM; all n=15, p<0.05 vs. base; <0.1 mM: no effect). In contrast, the NO donor DEA/NO reduced SS by 55-65% at 5-50 μM (both p<0.05 vs. base), with no effect at higher doses. […] However, co-infusion with the thiol-donating compound N-acetyl-L-cysteine (NAC, 3 mM) abolished AS inotropy.

CC(C)N[N+]([O-])=N[O-].[Na+] [IPA/NO, isopropylamine diazeniumdiolate]
effect on end-diastolic pressure-volume relationship (EDPVR) [1]: downward shift; also recorded: declined significantly

O=[N+]([O-])OCC(CO[N+](=O)[O-])O[N+](=O)[O-] [NTG, nitroglycerin]
effect on end-diastolic pressure-volume relationship (EDPVR) [1]: parallel down-ward shift | effect on end-diastolic pressure-volume relationship (EDPVR) ([1]; listed as nitroglycerin): parallel downward shift

CC(C)NCC(O)c1ccc(O)c(O)c1 (centres unmarked) [ISO, isoproterenol]
contractile response ([2]; Gαq myocytes, ISO 2.5 and 10 nM): did not elicit any contractile response | enhancement of sarcomere shortening ([2]; ISO 2.5 nM): 74±24% | enhancement of sarcomere shortening ([2]; ISO 10 nM): 250±75% | increase in sarcomere shortening ([3]; ISO 2.5 nM, n=30): 100±27% | effect of PKA inhibitor Rp-CPT-cAMPs on the agent's enhancement of sarcomere shortening ([3]; Rp-CPT-cAMPs 100 μM pre-treatment): blunts

C/C=C(/C)C(=O)O[C@H]1C(C)=C2[C@H]([C@@H]1OC(=O)CCCCCCC)[C@@](C)(OC(C)=O)C[C@H](OC(=O)CCC)[C@@]1(O)[C@H]2OC(=O)[C@@]1(C)O [thapsigargin]
effect on SR vesicle Ca2+ uptake ([4]; thapsigargin 10 μM): abolished | effect on Ca2+ sparks in control and AS (0.5 mM) cells [5]: abolished

CNc1ccc2oc(C[C@H]3O[C@@]4(CC[C@H]3C)O[C@H]([C@H](C)C(=O)c3ccc[nH]3)[C@H](C)C[C@H]4C)nc2c1C(=O)O [A23187]
decrease of total Ca2+ uptake ([4]; A23187 pre-incubation, 5 μg ionophore/mg SR protein): > 50%

CCN(CC)[N+]([O-])=N[O-].[Na+] [DEA/NO, sodium 2-(N,N-diethylamino)-diazenolate-2-oxide]
effect on end-diastolic pressure-volume relationship (EDPVR) [1]: parallel down-ward shift | effect of co-application on ISO (2.5 nM)-stimulated sarcomere shortening ([3]; DEA/NO 0.25 mM, AS 0.5 mM): markedly blunted | reduction of sarcomere shortening ([3]; DEA/NO 5-50 μM): 55-65% | effect of PKG inhibitor Rp-8Br-cGMPs on the agent's inotropy ([3]; Rp-8Br-cGMPs 10 μM pre-treatment): modest positive response | reproduction of AS increase in sarcomere shortening by equimolar NO donor ([3]; equimolar to AS): not reproduced | effect on sarcomere shortening ([3]; higher doses): no effect; also recorded: minimal changes | effect on sarcomere shortening ([3]; low doses): slight depression | effect on Ca2+ spark frequency ([5]; DEA/NO, increasing / equimolar doses): no effect; also recorded: did not significantly affect

C=C[C@@]1(C)CC(=O)[C@]2(O)[C@@]3(C)[C@@H](O)CCC(C)(C)[C@@H]3[C@H](O)[C@H](OC(C)=O)[C@@]2(C)O1 [FSK, forskolin]
increase in sarcomere shortening ([2]; Gαq myocytes, 25 nM FSK): 85±9% | increase in sarcomere shortening ([2]; Gαq myocytes, 100 nM FSK): 158±62%

ryanodine
effect on Ca2+ sparks in control and AS (0.5 mM) cells [5]: abolished

O=NO [NO2^−, nitrite]
effect on sarcomere shortening ([3]; 25-250 μM NO2- and higher or lower doses): no effect
